Patent US20260200849A1, “CATIONIC LIPIDS AND PREPARATION METHOD THEREOF” (RiboX Therapeutics HK Limited, priority 2024, published 2026)
“And” between values parts separate entries of the source, which are not always exact repeats. Identical values can stand only once. Like-named read-outs stand apart in the source and are kept apart here. Each block holds one compound with its values, some of them ahead of it.

Key:
MCP-1 = test: In vivo tolerability by IV: serum MCP-1 by Luminex; design: species or system C57BL/6J mice; details: Formulation No. 001, RNA No. 331, male C57BL/6J mice, 1.0 mg*kg/1 intravenous
Summary of the method: (§1)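 Male C57BL/6J mice aged 6-8 weeks (N=3) received 1.0 mg*kg−1 firefly-luciferase RNA-LNPs intravenously, with PBS as negative control. Serum taken at 2 and 24 h post-injection was assayed for MCP-1 and IL-6 by Luminex.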

[1] = In vivo lipid metabolism by IV: ionizable lipid concentration in plasma and liver by LC-MS/MS; design: species or system Sprague-Dawley (SD) rats; details: IV 0.15 mg/kg RNA-LNPs (hEPO), male SD rats, individual animals N=3; for concentration at 6 h / concentration at 168 h / concentration at 1 h: male, Sprague-Dawley, rat, iv, 0.15 mg/kg
Summary of the method: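 Male SD rats, 7-8 weeks old (N=3), given 0.15 mg*kg−1 hEPO-encoding RNA-LNPs IV. Plasma sampled at 1, 6, 96 and 168 h and liver at 6 and 168 h terminally; ionizable lipid quantified by LC-MS/MS, LLOQ 1 ng/mL plasma, 11 ng/g liver.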

IL-6 = test: In vivo tolerability by IV: serum IL-6 by Luminex; design: species or system C57BL/6J mice; details: Formulation No. 001, RNA No. 331, male C57BL/6J mice, 1.0 mg*kg/1 intravenous
Summary of the method: as §1

C57BL/6J mice = test: In vivo expression by IV, 1.0 mg/kg luciferase RNA-LNPs, whole-body and organ IVIS luminescence; details: Formulation No. 001, RNA No. 331; male C57BL/6J mice, 1.0 mg*kg−1 intravenous, 24-hours post injection
Summary of the method: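 Male C57BL/6J mice, 6-8 weeks old (N=3), received 1.0 mg*kg−1 firefly-luciferase RNA-LNPs IV. At 24 h post-dose, luciferin (15 mg/ml) was given IP, and whole-body, liver, spleen, kidney, small and large intestine luminescence was imaged by IVIS.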

hEPO = test: In vivo expression by IM: serum hEPO concentration by ELISA; details: IM 0.075 mg/kg, male C57BL/6J mice N=3, Formulation 001, RNA 019
Protocol: Circular RNA payloads were suspended in 25 mM Acetate Buffer (pH 4.5). To form LNPs, three volumes of human erythropoietin (hEPO) encoding cirRNA (SEQ ID NO:2), were mixed with one volume of lipids in ethanol solution by microfluidic mixing with the INano™ L+ (Micro& Nano) at a flow rate of 12 ml/min. The molar ratio of ionizable lipid to ribonucleotide was 6. After encapsulation, the particles were dialyzed twice against PBS. The LNP formulation was concentrated to targeted RNA concentration by Amicon® Ultra Centrifugal Filter (100 kDa MWCO) and filtered by a 0.65/0.22 um sterile filter.
6-8 week old, male C57BL/6J mice (N=3) were injected with 0.075 mg*kg−1 of RNA-LNPs encoding for hEPO by intramuscular injection. At 2-/6-/24-/48-/72 h-hours post injection, about 80 μL blood will be harvested and immediately added to the procoagulant containing tube. Stand for 30 min at room temperature and then centrifuged at 2500 g×10 min to obtain serum. About 30 μL serum samples will be aliquoted for hEPO concentration detection by ELISA kit (STEMCELL Technologies).

[2] = liver, 6 h post injection, read-out: Liver (ng/g), ionizable lipid concentration

Plasma (ng/mL), ionizable lipid concentration ([1]; 1 h post injection): 1635 ng/mL and 1440 ng/mL
Liver (ng/g), ionizable lipid concentration ([1]; 6 h post injection): 31120 ng/g and 47483 ng/g
Plasma (ng/mL), ionizable lipid concentration ([1]; 6 h post injection): 966 ng/mL and 975 ng/mL
Plasma (ng/mL), ionizable lipid concentration ([1]; 96 h post injection): 28.6 ng/mL (2×) and 12.9 ng/mL
Liver (ng/g), ionizable lipid concentration ([1]; 168 h post injection): 2277 ng/g and 2814 ng/g
Plasma (ng/mL), ionizable lipid concentration ([1]; 168 h post injection): 9.51 ng/mL and 8.26 ng/mL
concentration at 6 h [1, 2]: 48800 ng/g
concentration at 168 h ([1]; liver, 168 h post injection, read-out: Liver (ng/g), ionizable lipid concentration): 1640 ng/g
concentration at 1 h ([1]; plasma, 1 h post injection): 1640 ng/mL
concentration at 6 h ([1]; plasma, 6 h post injection, read-out: Plasma (ng/mL), ionizable lipid concentration): 966 ng/mL
concentration at 168 h ([1]; plasma, 168 h post injection, read-out: Plasma (ng/mL), ionizable lipid concentration): 9.51 ng/mL
SMILES: CCCCCCCCC(CCCCCC)C(=O)OCCCCCCCCOC(=O)NC(COC(=O)NCCN1CCCCC1)C(=O)OCCCCCCCCOC(=O)C(CCCCCC)CCCCCCCC (stereo not shown) [Lipid 888]
MCP-1 at 2 h (MCP-1; 2 hours post injection): 396 pg/mL
MCP-1 at 24 h (MCP-1; 24 hours post injection): 206 pg/mL
IL-6 at 2 h (IL-6; 2 hours post injection): 5.5 pg/mL
IL-6 at 24 h (IL-6; 24 hours post injection): 5.71 pg/mL
Kidney (p/s) (C57BL/6J mice): 2.72E+07 p/s
Large intestine (p/s) (C57BL/6J mice): 1.07E+08 p/s
Liver (p/s) (C57BL/6J mice): 4.61E+09 p/s
Small intestine (p/s) (C57BL/6J mice): 8.59E+08 p/s
Spleen (p/s) (C57BL/6J mice): 2.55E+08 p/s
Whole body (p/s) (C57BL/6J mice): 4.10E+09 p/s

Plasma (ng/mL), ionizable lipid concentration ([1]; 1 h post injection): 1272 ng/mL and 1635 ng/mL
Liver (ng/g), ionizable lipid concentration ([1]; 6 h post injection): 25720 ng/g and 25028 ng/g
Plasma (ng/mL), ionizable lipid concentration ([1]; 6 h post injection): 359 ng/mL and 641 ng/mL and 966 ng/mL
Plasma (ng/mL), ionizable lipid concentration ([1]; 96 h post injection): 5.84 ng/mL and 4.4 ng/mL and 28.6 ng/mL
Liver (ng/g), ionizable lipid concentration ([1]; 168 h post injection): 696.6 ng/g and 191.6 ng/g and 236.8 ng/g
Plasma (ng/mL), ionizable lipid concentration ([1]; 168 h post injection): 1.24 ng/mL and 9.51 ng/mL
concentration at 6 h [1, 2]: 26800 ng/g
concentration at 1 h ([1]; plasma, 1 h post injection): 1440 ng/mL
SMILES: CCCCCCCC/C=C\CCCCCCCC(=O)NC(COC(=O)NCCN1CCCCC1)C(=O)OCCCCCCCCOC(=O)C(CCCCCC)CCCCCCCC (stereo not shown) [Lipid 700]

SMILES: CCCCC/C=C\C/C=C\CCCCCCCC(=O)NC(COC(=O)NCCN1CCCCC1)C(=O)OCCCCCCCC(=O)OC(CCCCCCCC)CCCCCCCC (stereo not shown) [Lipid 549]
hEPO conc. (ng/mL) at 2 h (hEPO; 2 h): 2.47 ng/mL
hEPO conc. (ng/mL) at 6 h (hEPO; 6 h): 7.26 ng/mL
hEPO conc. (ng/mL) at 24 h (hEPO; 24 h): 12.57 ng/mL
hEPO conc. (ng/mL) at 48 h (hEPO; 48 h): 2.61 ng/mL
hEPO conc. (ng/mL) at 72 h (hEPO; 72 h): 0.87 ng/mL
